Columns and labels:
Format in all cases: in vivo
[1] = test system: ragweed (common ragweed, Ambrosia elatior); assay: Test A postemergence, ragweed; conditions: postemergence, 0 to 100 scale, 0 is no effect, 100 is complete control, approximately 10 days
Method in brief: (§1)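 Scores (0 no effect to 100 complete control) come from visual comparison of treated and untreated plants kept about 10 days in a greenhouse. Growth medium was a loam/sand blend; preemergence treatment was a directed soil spray, postemergence treatment went onto plants at the 1–2 leaf stage.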

[2] = test system: barnyardgrass (Echinochloa crus-galli); assay: Test B flooded paddy test, barnyardgrass; conditions: 250 g ai/ha, Flood; visual rating after 13 to 15 days; scale 0 to 100, 0 is no effect, 100 is complete control
Method in brief: (§2)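 Plants grown to 2-leaf stage, pots flooded to 3 cm above soil and compound applied directly to paddy water, depth maintained throughout. After 13-15 days in greenhouse, visual rating against untreated controls on 0-100 scale (0 no effect, 100 complete control).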

kochia (Kochia scoparia) [3] = assay: Test A postemergence, kochia; conditions: postemergence, 0 to 100 scale, 0 is no effect, 100 is complete control, approximately 10 days
Method in brief: as §1

[4] = test system: pigweed (Amaranthus retroflexus); assay: Test A postemergence, pigweed; conditions: postemergence, 0 to 100 scale, 0 is no effect, 100 is complete control, approximately 10 days
Method in brief: as §1

[5] = test system: ducksalad (Heteranthera limosa); assay: Test B flooded paddy test, ducksalad; conditions: 250 g ai/ha, Flood; visual rating after 13 to 15 days; scale 0 to 100, 0 is no effect, 100 is complete control
Method in brief: as §2

[6] = test system: pigweed (Amaranthus retroflexus); assay: Test A preemergence, pigweed; conditions: Preemergence, 0 to 100 scale (0 no effect, 100 complete control)
Method in brief: as §1

[7] = test system: ryegrass, Italian (Italian ryegrass, Lolium multiflorum); assay: Test A postemergence, Italian ryegrass; conditions: postemergence, 0 to 100 scale, 0 is no effect, 100 is complete control, approximately 10 days
Method in brief: as §1

[8] = test system: ryegrass, Italian (Italian ryegrass, Lolium multiflorum); assay: Test A preemergence, Italian ryegrass; conditions: Preemergence, 0 to 100 scale (0 no effect, 100 complete control)
Method in brief: as §1

[9] = test system: ragweed (common ragweed, Ambrosia elatior); assay: Test A preemergence, ragweed; conditions: Preemergence, 0 to 100 scale (0 no effect, 100 complete control)
Method in brief: as §1

[10] = test system: blackgrass (Alopecurus myosuroides); assay: Test A postemergence, blackgrass; conditions: postemergence, 0 to 100 scale, 0 is no effect, 100 is complete control, approximately 10 days
Method in brief: as §1

[11] = test system: wheat (Triticum aestivum); assay: Test A postemergence, wheat; conditions: postemergence, 0 to 100 scale, 0 is no effect, 100 is complete control, approximately 10 days
Method in brief: as §1

[12] = test system: barnyardgrass (Echinochloa crus-galli); assay: Test A postemergence, barnyardgrass; conditions: postemergence, 0 to 100 scale, 0 is no effect, 100 is complete control, approximately 10 days
Method in brief: as §1

rice (Oryza sativa) = assay: Test B flooded paddy test, rice; conditions: 250 g ai/ha, Flood; visual rating after 13 to 15 days; scale 0 to 100, 0 is no effect, 100 is complete control
Method in brief: as §2

kochia (Kochia scoparia) [13] = assay: Test A preemergence, kochia; conditions: Preemergence, 0 to 100 scale (0 no effect, 100 complete control)
Method in brief: as §1

[14] = test system: sedge, umbrella (small-flower umbrella sedge, Cyperus difformis); assay: Test B flooded paddy test, umbrella sedge; conditions: 250 g ai/ha, Flood; visual rating after 13 to 15 days; scale 0 to 100, 0 is no effect, 100 is complete control
Method in brief: as §2

[15] = test system: foxtail, giant (giant foxtail, Setaria faberii); assay: Test A preemergence, giant foxtail; conditions: Preemergence, 0 to 100 scale (0 no effect, 100 complete control)
Method in brief: as §1

[16] = test system: foxtail, giant (giant foxtail, Setaria faberii); assay: Test A postemergence, giant foxtail; conditions: postemergence, 0 to 100 scale, 0 is no effect, 100 is complete control, approximately 10 days
Method in brief: as §1

[17] = test system: galium (catchweed bedstraw, Galium aparine); assay: Test A postemergence, galium; conditions: postemergence, 0 to 100 scale, 0 is no effect, 100 is complete control, approximately 10 days
Method in brief: as §1

[18] = test system: barnyardgrass (Echinochloa crus-galli); assay: Test A preemergence, barnyardgrass; conditions: Preemergence, 0 to 100 scale (0 no effect, 100 complete control)
Method in brief: as §1

corn (Zea mays) = assay: Test A postemergence, corn; conditions: postemergence, 0 to 100 scale, 0 is no effect, 100 is complete control, approximately 10 days
Method in brief: as §1

Structure (SMILES) | Plant response rating, Ragweed ([1]; 125 g ai/ha) | Plant response rating, Barnyardgrass [2] | Plant response rating, Kochia (kochia (Kochia scoparia) [3]; 125 g ai/ha) | Plant response rating, Pigweed ([4]; 125 g ai/ha) | Plant response rating, Ducksalad [5] | Plant response rating, Pigweed ([6]; 125 g ai/ha) | Plant response rating, Ryegrass, Italian ([7]; 125 g ai/ha) | Plant response rating, Ryegrass, Italian ([8]; 125 g ai/ha) | Plant response rating, Ragweed ([9]; 125 g ai/ha) | Plant response rating, Blackgrass ([10]; 125 g ai/ha) | Plant response rating, Wheat ([11]; 125 g ai/ha) | Plant response rating, Barnyardgrass ([12]; 125 g ai/ha) | Plant response rating, Rice (rice (Oryza sativa)) | Plant response rating, Kochia (kochia (Kochia scoparia) [13]; 125 g ai/ha) | Plant response rating, Sedge, Umbrella [14] | Plant response rating, Foxtail, Giant ([15]; 125 g ai/ha) | Plant response rating, Foxtail, Giant ([16]; 125 g ai/ha) | Plant response rating, Galium ([17]; 125 g ai/ha) | Plant response rating, Barnyardgrass ([18]; 125 g ai/ha) | Plant response rating, Corn (corn (Zea mays); 125 g ai/ha) | also measured
N#CCCCOc1c(C#N)cccc1Oc1ncc(Cl)cn1 [Compound 22] | 10 | 0 | 90 | 80 | 0 | 100 | 0 | 0 | 30 | 0 | 20 | 0 | 0 | 90 | 0 | 90 | 10 | 50 | 20 | 20 | Plant response rating, Ragweed ([1]; 31 g ai/ha): 0; Plant response rating, Kochia (kochia (Kochia scoparia) [3]; 31 g ai/ha): 80; Plant response rating, Pigweed ([4]; 31 g ai/ha): 30; Plant response rating, Pigweed ([6]; 31 g ai/ha): 80; Plant response rating, Ryegrass, Italian ([7]; 31 g ai/ha): 0; Plant response rating, Ryegrass, Italian ([8]; 31 g ai/ha): 0; Plant response rating, Ragweed ([9]; 31 g ai/ha): 10; Plant response rating, Blackgrass ([10]; 31 g ai/ha): 0; Plant response rating, Wheat ([11]; 31 g ai/ha): 0; Plant response rating, Barnyardgrass ([12]; 31 g ai/ha): 0; Plant response rating, Kochia (kochia (Kochia scoparia) [13]; 31 g ai/ha): 70; Plant response rating, Foxtail, Giant ([15]; 31 g ai/ha): 0; Plant response rating, Foxtail, Giant ([16]; 31 g ai/ha): 0; Plant response rating, Galium ([17]; 31 g ai/ha): 20; Plant response rating, Barnyardgrass ([18]; 31 g ai/ha): 0; Plant response rating, Corn (corn (Zea mays); 31 g ai/ha): 10
N#CCCCOc1c(F)cccc1Oc1ncc(Cl)cn1 [Compound 24] | 10 | 0 | 80 | 40 | 30 | 90 | 0 | 0 | 0 | 0 | 0 | 0 | 0 | 60 | 0 | 30 | 0 | 20 | 20 | 0 | Plant response rating, Ragweed ([1]; 500 g ai/ha): 50; Plant response rating, Kochia (kochia (Kochia scoparia) [3]; 500 g ai/ha): 100; Plant response rating, Pigweed ([4]; 500 g ai/ha): 70; Plant response rating, Pigweed ([6]; 500 g ai/ha): 100; Plant response rating, Ryegrass, Italian ([7]; 500 g ai/ha): 0; Plant response rating, Ryegrass, Italian ([8]; 500 g ai/ha): 20; Plant response rating, Ragweed ([9]; 500 g ai/ha): 70; Plant response rating, Blackgrass ([10]; 500 g ai/ha): 20; Plant response rating, Wheat ([11]; 500 g ai/ha): 0; Plant response rating, Barnyardgrass ([12]; 500 g ai/ha): 50; Plant response rating, Kochia (kochia (Kochia scoparia) [13]; 500 g ai/ha): 100; Plant response rating, Foxtail, Giant ([15]; 500 g ai/ha): 100; Plant response rating, Foxtail, Giant ([16]; 500 g ai/ha): 30; Plant response rating, Galium ([17]; 500 g ai/ha): 80; Plant response rating, Barnyardgrass ([18]; 500 g ai/ha): 70; Plant response rating, Corn (corn (Zea mays); 500 g ai/ha): 10
Fc1cccc(Oc2ncc(Cl)cn2)c1OC/C=C/C(F)(F)F [Compound 25] | 0 | 0 | 90 | 50 | 100 | 100 | 0 | 60 | 0 | 20 | 0 | 40 | 0 | 30 | 75 | 100 | 30 | 50 | 90 | 10 | Plant response rating, Ragweed ([1]; 500 g ai/ha): 0; Plant response rating, Kochia (kochia (Kochia scoparia) [3]; 500 g ai/ha): 100; Plant response rating, Pigweed ([4]; 500 g ai/ha): 70; Plant response rating, Pigweed ([6]; 500 g ai/ha): 100; Plant response rating, Ryegrass, Italian ([7]; 500 g ai/ha): 70; Plant response rating, Ryegrass, Italian ([8]; 500 g ai/ha): 100; Plant response rating, Ragweed ([9]; 500 g ai/ha): 20; Plant response rating, Blackgrass ([10]; 500 g ai/ha): 80; Plant response rating, Wheat ([11]; 500 g ai/ha): 20; Plant response rating, Barnyardgrass ([12]; 500 g ai/ha): 90; Plant response rating, Kochia (kochia (Kochia scoparia) [13]; 500 g ai/ha): 100; Plant response rating, Foxtail, Giant ([15]; 500 g ai/ha): 100; Plant response rating, Foxtail, Giant ([16]; 500 g ai/ha): 80; Plant response rating, Galium ([17]; 500 g ai/ha): 100; Plant response rating, Barnyardgrass ([18]; 500 g ai/ha): 100; Plant response rating, Corn (corn (Zea mays); 500 g ai/ha): 20
FCCCOc1c(F)cccc1Oc1ncc(Cl)cn1 [Compound 26] | 0 | 0 | 60 | 60 | 30 | 90 | 0 | 0 | 0 | 0 | 0 | 10 | 0 | 10 | 0 | 50 | 10 | 70 | 40 | 0 | Plant response rating, Ragweed ([1]; 500 g ai/ha): 20; Plant response rating, Kochia (kochia (Kochia scoparia) [3]; 500 g ai/ha): 90; Plant response rating, Pigweed ([4]; 500 g ai/ha): 90; Plant response rating, Pigweed ([6]; 500 g ai/ha): 100; Plant response rating, Ryegrass, Italian ([7]; 500 g ai/ha): 0; Plant response rating, Ryegrass, Italian ([8]; 500 g ai/ha): 20; Plant response rating, Ragweed ([9]; 500 g ai/ha): 20; Plant response rating, Blackgrass ([10]; 500 g ai/ha): 50; Plant response rating, Wheat ([11]; 500 g ai/ha): 0; Plant response rating, Barnyardgrass ([12]; 500 g ai/ha): 60; Plant response rating, Kochia (kochia (Kochia scoparia) [13]; 500 g ai/ha): 100; Plant response rating, Foxtail, Giant ([15]; 500 g ai/ha): 100; Plant response rating, Foxtail, Giant ([16]; 500 g ai/ha): 70; Plant response rating, Galium ([17]; 500 g ai/ha): 50; Plant response rating, Barnyardgrass ([18]; 500 g ai/ha): 100; Plant response rating, Corn (corn (Zea mays); 500 g ai/ha): 10

Source: patent US10485235B2, “Aryloxypyrimidinyl ethers as herbicides” (FMC Corporation, priority 2015, dated 2019)
